Results taken from US11319324B2, “Pyrazolo-pyrrolo-pyrimidine-dione derivatives as P2X3 inhibitors” (Bayer Aktiengesellschaft, priority 2017, dated 2022).

What was measured:
Format in all cases: cell-based
human P2X3 receptor [1] = target: T1, human P2X3 receptor (Homo sapiens, UniProt P56373); assay: Intracellular calcium measurement, antagonist activity at human P2X3 receptors (hP2X3 1321N1), Fluo8; design: expressed in transfected cells; host or cells: human astrocytoma 1321N1 (1312N1 [sic]); details: column 3); 1321N1 cells, human P2X3, Fluo8, agonist ATP at EC50
T1 sequence (P56373 1-397): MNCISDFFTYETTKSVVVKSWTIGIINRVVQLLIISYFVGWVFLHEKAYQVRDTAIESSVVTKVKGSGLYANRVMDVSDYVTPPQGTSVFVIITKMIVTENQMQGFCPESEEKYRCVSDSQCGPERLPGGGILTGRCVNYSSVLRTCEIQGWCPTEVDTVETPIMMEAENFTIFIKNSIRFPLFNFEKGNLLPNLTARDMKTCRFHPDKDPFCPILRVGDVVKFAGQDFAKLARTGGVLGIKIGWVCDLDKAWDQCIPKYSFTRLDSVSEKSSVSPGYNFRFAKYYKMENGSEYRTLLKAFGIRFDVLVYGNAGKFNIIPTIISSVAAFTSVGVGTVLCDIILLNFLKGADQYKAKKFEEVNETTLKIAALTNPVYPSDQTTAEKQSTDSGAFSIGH
Outline: (§1)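 Inhibition of ATP-triggered Ca2+ transients is measured in 1321N1 cells expressing P2X3 homotrimers or P2X2/3 heterotrimers.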

human P2X2/3 receptors = target: T2, human P2X2/3 receptors (Homo sapiens, UniProt P56373+Q9UBL9); assay: Intracellular calcium measurement, antagonist activity at human P2X2/3 receptors (hP2X23 1321N1), Fluo8; details: for IC50: column 4); 1321N1 cells, human P2X2/3, Fluo8, agonist ATP at EC50; read-out: 4) hP2X2/3 IC50 [nM] (1321N1); for hP2X23/hP2X3* Selectivity (1321N1): ratio of column 4) hP2X2/3 to column 3) hP2X3, 1321N1
T2 construct: expressed in transfected cells; host or cells: human astrocytoma 1321N1 (1312N1 [sic])
T2 sequence (P56373 1-397): T1 sequence (P56373 1-397)
T2 sequence (Q9UBL9 1-471): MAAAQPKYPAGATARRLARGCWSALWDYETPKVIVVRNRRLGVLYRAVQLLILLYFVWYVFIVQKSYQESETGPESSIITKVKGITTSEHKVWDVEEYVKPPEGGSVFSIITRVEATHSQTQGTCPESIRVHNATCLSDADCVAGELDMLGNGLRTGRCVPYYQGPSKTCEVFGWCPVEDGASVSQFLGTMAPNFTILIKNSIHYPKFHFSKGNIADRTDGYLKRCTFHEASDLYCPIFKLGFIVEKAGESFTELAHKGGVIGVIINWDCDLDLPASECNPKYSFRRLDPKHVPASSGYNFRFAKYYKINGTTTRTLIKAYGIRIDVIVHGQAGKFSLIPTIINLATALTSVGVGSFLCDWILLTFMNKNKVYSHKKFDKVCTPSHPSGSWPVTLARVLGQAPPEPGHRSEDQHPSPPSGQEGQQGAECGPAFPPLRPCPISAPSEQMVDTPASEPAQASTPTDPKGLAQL
Outline: as §1

human P2X3 receptor [2] = target: T1, human P2X3 receptor; assay: Intracellular calcium measurement to assess antagonist activity at human P2X3 receptors (hP2X3 CHO), photina luminescence; design: expressed in transfected cells; host or cells: Chinese hamster ovary (CHO) cells; details: column 2), CHO cells, agonist α,β-methylene-ATP at EC50
Outline: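 CHO cells stably expressing human P2X3 and mitochondrial photina, plated the day before at 30 °C, then loaded 3 h at 37 °C in 2 mM Ca-tyrode buffer with 5 μg/ml coelenterazine. Agonist-evoked calcium luminescence read immediately; inhibition seen as signal decrease.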

SMILES	IC50 (human P2X3 receptor [1]) [nM]	IC50 (human P2X2/3 receptors) [nM]	hP2X23/hP2X3* Selectivity (1321N1) (human P2X2/3 receptors)	IC50 (human P2X3 receptor [2]) [nM]
CC(C)N1Cc2c(n(CC(=O)Nc3ccc(F)cn3)c3cc(C4=CCN(C(=O)OC(C)(C)C)C4)nn3c2=O)C1=O [Example 142, tert-butyl 3-[4-{2-[(5-fluoropyridin-2-yl)amino]-2-oxoethyl}-5,8-dioxo-6-(propan-2-yl)-5,6,7,8-tetrahydro-4H-pyrazolo[1,5-a]pyrrolo[3,4-d]pyrimidin-2-yl]-2,5-dihydro-1H-pyrrole-1-carboxylate]	7	1140	165	11
CC(C)N1Cc2c(n(CC(=O)Nc3ccc(F)cn3)c3cc(C#N)nn3c2=O)C1=O [Example 146, 2-[2-cyano-5,8-dioxo-6-(propan-2-yl)-5,6,7,8-tetrahydro-4H-pyrazolo[1,5-a]pyrrolo[3,4-d]pyrimidin-4-yl]-N-(5-fluoropyridin-2-yl)acetamide]	124	6950	56	97
CC(C)N1Cc2c(n(CC(=O)Nc3ccc(F)cn3)c3cc(-c4ccccc4)nn3c2=O)C1=O [Example 150, 2-[5,8-dioxo-2-phenyl-6-(propan-2-yl)-5,6,7,8-tetrahydro-4H-pyrazolo[1,5-a]pyrrolo[3,4-d]pyrimidin-4-yl]-N-(5-fluoropyridin-2-yl)acetamide]	16	2250	139	12
COC[C@H](C)N1Cc2c(n(CC(=O)Nc3ccc(F)cn3)c3cc(-c4ccc(C)nc4)nn3c2=O)C1=O [Example 151, N-(5-fluoropyridin-2-yl)-2-{6-[(2S)-1-methoxypropan-2-yl]-2-(6-methylpyridin-3-yl)-5,8-dioxo-5,6,7,8-tetrahydro-4H-pyrazolo[1,5-a]pyrrolo[3,4-d]pyrimidin-4-yl}acetamide]	5	580	106	6
COC[C@H](C)N1Cc2c(n(CC(=O)Nc3ccc(F)cn3)c3cc(-c4ccncc4C)nn3c2=O)C1=O [Example 152, N-(5-fluoropyridin-2-yl)-2-{6-[(2S)-1-methoxypropan-2-yl]-2-(3-methylpyridin-4-yl)-5,8-dioxo-5,6,7,8-tetrahydro-4H-pyrazolo[1,5-a]pyrrolo[3,4-d]pyrimidin-4-yl}acetamide]	4	1460	328	9
COC[C@H](C)N1Cc2c(n(CC(=O)Nc3ccc(F)cn3)c3cc(-c4ccnc(C)c4)nn3c2=O)C1=O [Example 153]	6	2350	408	10
Cc1ccc(-c2cc3n(CC(=O)Nc4ccc(F)cn4)c4c(c(=O)n3n2)CN(C(C)C)C4=O)cn1 [Example 154]	8	765	96	21
Cc1ccc(-c2cc3n(CC(=O)Nc4ccc(F)cn4)c4c(c(=O)n3n2)CN(C(C)C)C4=O)c(C)n1 [Example 157]	54	> 32000	>593	26
COC[C@H](C)N1Cc2c(n(CC(=O)Nc3ccc(F)cn3)c3cc(-c4cc(C)ncc4C)nn3c2=O)C1=O [Example 158]	3	1400	424	10
CC(C)N1Cc2c(n(CC(=O)Nc3ccc(F)cn3)c3cc(N(C)C)nn3c2=O)C1=O [Example 172]	42	6350	150	35
CCNc1cc2n(CC(=O)Nc3ccc(F)cn3)c3c(c(=O)n2n1)CN(C(C)C)C3=O [Example 173]	104	8900	85	58

The remaining compounds from weak to strong by IC50 (human P2X3 receptor [1]), led by results:

IC50 (human P2X3 receptor [1]) [nM]	IC50 (human P2X2/3 receptors) [nM]	hP2X23/hP2X3* Selectivity (1321N1) (human P2X2/3 receptors)	IC50 (human P2X3 receptor [2]) [nM]	SMILES
120	> 20700	>173	108	COCCNc1cc2n(CC(=O)Nc3ccc(F)cn3)c3c(c(=O)n2n1)CN(C(C)C)C3=O [Example 169]
120	> 20400	>170	59	CC(C)N1Cc2c(n(CC(=O)Nc3ccc(F)cn3)c3cc(NCC(F)F)nn3c2=O)C1=O [Example 170]
37	6950	190	73	CC(C)N1Cc2c(n(CC(=O)Nc3ccc(F)cn3)c3cc(NCC4CC4)nn3c2=O)C1=O [Example 175]
34	6600	197	20	CC(C)N1Cc2c(n(CC(=O)Nc3ccc(F)cn3)c3cc(C4=CCN(C(=O)OC(C)(C)C)CC4)nn3c2=O)C1=O [Example 143, tert-butyl 4-[4-{2-[(5-fluoropyridin-2-yl)amino]-2-oxoethyl}-5,8-dioxo-6-(propan-2-yl)-5,6,7,8-tetrahydro-4H-pyrazolo[1,5-a]pyrrolo[3,4-d]pyrimidin-2-yl]-3,6-dihydropyridine-1(2H)-carboxylate]
33	4900	148	27	CC(C)Nc1cc2n(CC(=O)Nc3ccc(F)cn3)c3c(c(=O)n2n1)CN(C(C)C)C3=O [Example 171]
18	2300	128	36	CC(C)N1Cc2c(n(CC(=O)Nc3ccc(F)cn3)c3cc(NC4CC4)nn3c2=O)C1=O [Example 167, 2-[2-(cyclopropylamino)-5,8-dioxo-6-(propan-2-yl)-5,6,7,8-tetrahydro-4H-pyrazolo[1,5-a]pyrrolo[3,4-d]pyrimidin-4-yl]-N-(5-fluoropyridin-2-yl)acetamide]
13	2110	169	11	CC(C)N1Cc2c(n(CC(=O)Nc3ccc(F)cn3)c3cc(-c4ccncc4)nn3c2=O)C1=O [Example 149, 2-[5,8-dioxo-6-(propan-2-yl)-2-(pyridin-4-yl)-5,6,7,8-tetrahydro-4H-pyrazolo[1,5-a]pyrrolo[3,4-d]pyrimidin-4-yl]-N-(5-fluoropyridin-2-yl)acetamide]
9	2350	250	17	CC(C)N1Cc2c(n(CC(=O)Nc3ccc(F)cn3)c3cc(NC4CCCC4)nn3c2=O)C1=O [Example 168]
6	2200	367	16	Cc1ccc(-c2cc3n(CC(=O)Nc4ccc(F)cn4)c4c(c(=O)n3n2)CN([C@@H]2CCOC2)C4=O)nc1 [Example 160, N-(5-fluoropyridin-2-yl)-2-[2-(5-methylpyridin-2-yl)-5,8-dioxo-6-[(3R)-oxolan-3-yl]-5,6,7,8-tetrahydro-4H-pyrazolo[1,5-a]pyrrolo[3,4-d]pyrimidin-4-yl]acetamide]
4	295	78	12	Cc1cc(C)c(-c2cc3n(CC(=O)Nc4ccc(F)cn4)c4c(c(=O)n3n2)CN(C(C)C)C4=O)cn1 [Example 156]
3	1800	581	13	Cc1cc(-c2cc3n(CC(=O)Nc4ccc(F)cn4)c4c(c(=O)n3n2)CN(C(C)C)C4=O)c(C)cn1 [Example 159]
